Source: paper PMC6278073 (BMC Pharmacology & Toxicology, 2018)

What was measured:
[1] = in vivo
Procedure: PK studies in animals were approved by the Institutional Animal Care and Use Committee (IACUC) of the institution performing the study. […] Twenty-four animals were used for each route of administration and both the genders were randomly included (n = 3 mice per time point). The intravenous dose was administered via tail vein injection at an injection volume of 5 ml/kg, and the oral dose was given via gavage at a dose volume of 10 ml/kg. […] Mice were sacrificed with carbon dioxide asphyxiation following bleeds. Plasma was prepared and stored at -80 °C until bioanalysis.
(§1) Sample preparation and bioanalysis was performed at the University of Cincinnati. For extraction, 50 μl of plasma samples were transferred to glass tubes. […] The extraction solvent was separated by centrifugation. […] Collected fractions were evaporated using centrifugal evaporator.
(§2) Analysis of extracted samples was performed by an LC-MS/MS method. […] The column was Synergi™ 4 μm Polar-RP 50 × 2.00 mm (Phenomenex) run at a flow rate of 400 μl/min with an injection volume of 5 μl (partial loop). […] The analysis was performed using a Thermo Scientific LTQ-FT™ mass spectrometer operated in positive-ion electrospray mode.
(§3) Pharmacokinetic analysis was performed on either mean plasma concentration-time data (mouse) or on the individual plasma concentration-time data (prairie dog, guinea pig, and monkey) employing Phoenix® WinNonlin 6.4®. PK parameters such as maximum plasma concentration (Cmax), the time corresponding to Cmax (Tmax), terminal half-life (T1/2), the volume of distribution (Vd) and clearance (CL) were calculated by non-compartmental methods and presented as the arithmetic mean ± standard deviation (SD). The bioavailability (F) was estimated by dividing the mean dose-normalized area under the plasma concentration-time curve from time 0 extrapolated to infinity (AUCinf) upon oral dose by the mean dose-normalized AUCinf upon intravenous dose.

[2] = in vivo; remark: listed apart in the source
Procedure: (§4) Prairie dog PK studies were performed at Centers for Disease Control and Prevention (CDC, Atlanta). […] The animals were collected in Lubbock, TX. All animals are given full physical examination by a veterinarian prior to being shipped to CDC. […] For each blood sample collection, prairie dogs were anesthetized with 5% isoflurane gas and maintained with 1–3% isoflurane during sample collection through peripheral veins. Plasma was prepared and stored at -70 °C until bioanalysis.
as §1, §2, §3

[3] = in vivo; conditions: male, Hartley, guinea pig, iv, 10 mg/kg
Procedure: Male Hartley guinea pigs (450–650 g) were procured from Charles River. Nine animals were used, three (n = 3) for each route of administration. The intravenous dose was given via jugular vein cannula, and the oral dose was given via gavage. […] Plasma was prepared and stored at -80 °C until bioanalysis.
as §1, §2, §3

[4] = in vivo; remark: listed apart in the source
Procedure: Six Animals (3.5 kg) were procured from Charles River, three (n = 3) for each route of administration. Animals were fasted overnight before dosing and at least 1 h following dose administration. The intravenous dose was given via a saphenous vein at an injection volume of 1 ml/kg, and oral dosing was performed via gavage at a dose volume of 5 ml/kg. […] Plasma was prepared and stored at-70 °C until bioanalysis.
as §1, §2, §3

[5] = prairie dogs
Procedure: as §4
The formulation used in previously reported PK studies have varied based on the animal model. […] For their intravenous PK study in dogs, Solutol® HS 15 was used instead of cremophor [13].

[6] = nilotinib, 7 mg twice-daily, 20 mg once-daily, 20 mg twice-daily for 7 days, prairie dogs
Procedure: as §4

[7] = tested on: plasma protein; conditions: nilotinib, all the preclinical species and humans; cited from earlier work
[8] = nilotinib, cited from earlier work
[9] = nilotinib; cited from earlier work
[10] = both, C57BL/6, mouse, in vivo, iv, 10 mg/kg
[11] = both, C57BL/6, mouse, in vivo, po, 10 mg/kg
[12] = male, dog, in vivo, iv, 10 mg/kg
[13] = male, dog, in vivo, po, 30 mg/kg
[14] = male, dog, in vivo, po, 10 mg/kg
[15] = male, dog, in vivo, po, 20 mg/kg
[16] = nilotinib, IV 10 mg/kg, prairie dogs, mean ± SD
[17] = cynomolgus monkey, in vivo, iv, 10 mg/kg
[18] = cynomolgus monkey, in vivo, po, 10 mg/kg

## Cc1ccc(NC(=O)c2ccc(CN3CCN(C)CC3)cc2)cc1Nc1nccc(-c2cccnc2)n1 [imatinib]
[1]; [10]
  AUC(0-inf): 4.52 µg·h/mL
[1]; [11]
  AUC(0-inf): 4.85 µg·h/mL
  Tmax: 1 h
  Cmax: 1.47 µg/mL
[2]; male, dog, in vivo
  bioavailability: ~22%
[2]; [12]
  AUC(0-inf): 12.6 µg·h/mL
[2]; [13]
  AUC(0-inf): 8.09 ± 3.01 µg·h/mL
  Cmax: 1.68 ± 0.834 µg/mL
  Tmax: 3 ± 1.15 h

## Cc1cn(-c2cc(NC(=O)c3ccc(C)c(Nc4nccc(-c5cccnc5)n4)c3)cc(C(F)(F)F)c2)cn1 [nilotinib]
[1]; [10]
  AUC(0-inf): 76.3 µg·h/mL
  MRT: 2.21 h
  Vd: 0.29 L/kg
  clearance: 0.131 L/h/kg
  half-life: 1.81 h
[1]; [11]
  AUC(0-inf): 38.4 µg·h/mL
  Tmax: 0.5 h
  half-life: 2.94 h
[1]; both, C57BL/6, mouse, in vivo, po, 10 mg/kg, Bioavailability, nilotinib, oral 10 mg/kg in NMP/PEG 300 vs IV 10 mg/kg, C57BL/6 mice
  bioavailability: 50%
[1]; both, C57BL/6, mouse, in vivo, po, 10 mg/kg, nilotinib, oral 10 mg/kg in NMP/PEG 300, C57BL/6 mice
  Cmax: 18 µg/mL
[1]; both, C57BL/6, mouse, in vivo, po, 10 mg/kg, nilotinib, oral 10 mg/kg, C57BL/6 mice
  Cmax: ~18 µg/mL
[1]; nilotinib, oral 10 mg/kg, C57BL/6 mice
  Time to Cmax after dosing: 30 min
[2]; male, dog, in vivo, nilotinib, oral 20 mg/kg in NMP/PEG 300 vs IV 10 mg/kg, prairie dogs
  bioavailability: ~24%
[2]; [12]
  AUC(0-inf): 57.6 µg·h/mL
  MRT: 6.7 ± 2.9 h
  Vd: 1.16 ± 0.326 L/kg
  clearance: 0.19 L/h/kg
[2]; male, dog, in vivo, iv, 10 mg/kg, T1/2, nilotinib, IV 10 mg/kg, prairie dogs, mean ± SD
  half-life: 6.5 h
[2]; [14]
  AUC(0-inf): 9.33 ± 3.63 µg·h/mL
  Cmax: 0.951 ± 0.255 µg/mL
  Tmax: 5.6 ± 2.19 h
[2]; male, dog, in vivo, po, 10 mg/kg, Apparent T1/2, nilotinib, oral 10 mg/kg in Avicel/HPMC suspension, prairie dogs, mean ± SD
  half-life: 3.5 ± 0.6 h
[2]; male, dog, in vivo, po, 10 mg/kg, nilotinib, oral 10 mg/kg in Avicel/HPMC suspension vs IV 10 mg/kg, prairie dogs
  bioavailability: 16%
[2]; [15]
  AUC(0-inf): 28 µg·h/mL
  Cmax: 1.67 ± 0.315 µg/mL
  Tmax: 7.2 ± 1.79 h
[2]; male, dog, in vivo, po, 20 mg/kg, Apparent T1/2, nilotinib, oral 20 mg/kg in NMP/PEG 300, prairie dogs, mean ± SD
  half-life: 7.5 h
[2]; male, dog, in vivo, po, 20 mg/kg, nilotinib, oral 20 mg/kg in NMP/PEG 300 vs IV 10 mg/kg, prairie dogs
  bioavailability: 24%
[2]; [16]
  AUC(0-inf): 57,551 ± 15,508 ng.hr./ml
  CL: 0.19 ± 0.077 L/h/kg
[2]; nilotinib, IV 10 mg/kg, prairie dogs, mean ± SD, 10 mg/kg
  T1/2: 6.51 ± 2.97 h
[2]; nilotinib, oral 20 mg/kg in NMP/PEG 300, prairie dogs, mean ± SD, 20 mg/kg
  Apparent T1/2: 7.57 ± 2.01 h
[3]
  Vd: 37.6 L/kg
  clearance: 11.9 L/h/kg
  half-life: 2.1 h
[4]; [17]
  AUC(0-inf): 16.1 µg·h/mL
  MRT: 8.9 ± 1.1 h
  Vd: 5.74 ± 1.78 L/kg
  clearance: 0.639 L/h/kg
[4]; cynomolgus monkey, in vivo, iv, 10 mg/kg, T1/2, nilotinib, IV 10 mg/kg, Cynomolgus monkeys, mean ± SD
  half-life: 7.8 h
[4]; [18]
  AUC(0-inf): 2.1 ± 0.468 µg·h/mL
  Cmax: 0.41 ± 0.046 µg/mL
  Tmax: 1.67 ± 0.58 h
  bioavailability: 13%
[4]; cynomolgus monkey, in vivo, po, 10 mg/kg, Apparent T1/2, nilotinib, oral 10 mg/kg in Avicel/HPMC, Cynomolgus monkeys, mean ± SD
  half-life: 5.2 h
[4]; nilotinib, IV 10 mg/kg, Cynomolgus monkeys, mean ± SD
  T1/2: 7.79 ± 0.71 h
[4]; nilotinib, oral 10 mg/kg in Avicel/HPMC, Cynomolgus monkeys, mean ± SD
  Apparent T1/2: 5.16 ± 0.52 h
[5]; nilotinib/NMP (20 mg/ml) in PEG 300 (1:10), oral, weight loss, severe diarrhea, elevated liver enzymes also in vehicle-treated animals, data not shown
  Tolerability in multi-dose studies: not tolerated
[5]; oral suspension of Avicel-RC 591 and HPMC
  Tolerability in multiple dose PK studies: tolerable
[6]
  Deviation of predicted peak and trough levels on Days 1 and 7 from reported levels: ≤ 25%
[7]
  Protein binding: greater than 97%
[8]; acidic environment
  Solubility in an acidic environment: soluble
[8]; pH above 4.5
  Solubility at pH above 4.5: poorly soluble
[8]
  Water solubility: low
[9]
  Biopharmaceutics Classification System class: class II/IV
  Permeability: poor to moderate
